Measured values reported in patent US10702506B2, “Small molecule inhibitors of pendrin ion exchange and pharmaceutical compositions” (THE REGENTS OF THE UNIVERSITY OF CALIFORNIA, priority 2016, dated 2020).

Molecular target: T1, pendrin (Homo sapiens, UniProt O43511)
T1 sequence (O43511 1-780): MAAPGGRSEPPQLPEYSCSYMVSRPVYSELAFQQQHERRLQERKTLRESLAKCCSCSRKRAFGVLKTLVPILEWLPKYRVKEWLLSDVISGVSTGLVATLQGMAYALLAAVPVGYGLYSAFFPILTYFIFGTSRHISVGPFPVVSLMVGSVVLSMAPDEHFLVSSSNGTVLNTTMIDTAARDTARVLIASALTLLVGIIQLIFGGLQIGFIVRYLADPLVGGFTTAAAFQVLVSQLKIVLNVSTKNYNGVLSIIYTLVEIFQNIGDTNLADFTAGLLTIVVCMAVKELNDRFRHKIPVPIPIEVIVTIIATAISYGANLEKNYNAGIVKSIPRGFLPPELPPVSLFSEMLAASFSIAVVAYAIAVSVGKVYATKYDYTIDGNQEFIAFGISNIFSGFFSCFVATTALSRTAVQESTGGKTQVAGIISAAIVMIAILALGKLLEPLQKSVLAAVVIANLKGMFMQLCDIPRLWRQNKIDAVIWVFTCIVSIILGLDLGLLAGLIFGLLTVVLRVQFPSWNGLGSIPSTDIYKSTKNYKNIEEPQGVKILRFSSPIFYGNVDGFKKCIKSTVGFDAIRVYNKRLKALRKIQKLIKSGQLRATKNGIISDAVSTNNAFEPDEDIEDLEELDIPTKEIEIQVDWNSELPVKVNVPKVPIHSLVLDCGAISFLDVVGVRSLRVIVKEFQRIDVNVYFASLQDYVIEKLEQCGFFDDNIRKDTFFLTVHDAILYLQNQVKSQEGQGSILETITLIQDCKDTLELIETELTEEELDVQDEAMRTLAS
Assay: YFP (EYFP-HIF) fluorescence quenching assay of pendrin-mediated Cl− exchange (SCN−, I−, NO3−) in FRT cells; high-throughput screen
Assay type: cell-based
Set-up: expressed in transfected cells
Details: FRT, 25 μM; read-out: Inh. (%), percentage inhibition of human pendrin
Protocol: Fischer rat thyroid (FRT) cells were cultured in Kaign's modified Ham's F12 medium supplemented with 10% FBS, 2 mM L-glutamine, 100 U/ml penicillin, […], […] myo-inositol and […] ascorbic acid. For high-throughput screening, FRT cells were stably transfected with EYFP-H148Q/I152L/F46L (EYFP-HIF; in pcDNA3.1/Hygro (+)), isolated using 0.25 mg/ml hygromycin B, and then transfected with pcDNA3.1 (+) encoding human pendrin with clonal cell lines selected using 0.5 mg/ml G418.
High-throughput screening was performed using a semi-automated screening platform (Beckman, Fullerton, Calif.) configured as described. FRT cells expressing human pendrin and EYFP-HIF were plated in 96-well black-walled, clear-bottom tissue culture plates (Corning, Corning, N.Y.) at a density of 20,000 cells/well, and cultured to confluence over 48 h. For screening, plates were washed twice with PBS (in mM: 137 NaCl, 2.7 KCl, 1.1 KH2PO4, 8.1 Na2HPO4, 0.9 CaCl2), 0.5 MgCl2) prior to addition of 100 μl PBS containing test compounds. Screening was done with ˜36,000 compounds from ChemDiv (San Diego, Calif.), TimTec (Newark, Del.), and Asinex (Winston-Salem, N.C.). After 10 min incubation with test compound, plates were transferred to a Tecan Infinite M1000 plate reader (Tecan, Morrisville, N.C.) for fluorescence assay of pendrin activity. The assay duration was 10 s with initial fluorescence intensity recorded for 2 s prior to addition of 100 μl of NaSCN-substituted PBS (137 mM NaCl replaced with NaSCN). All assay plates contained negative controls (DMSO). In some experiments Cl^− exchange for I^− or NO3^− was measured similarly using NaI and NaNO3-substituted PBS. Control experiments to measure basal ion transport rates were done in FRT cells expressing EYFP-HIF without pendrin.
FRT cells were chosen for screening due to their low intrinsic permeability to anions that are transported by pendrin. As depicted in FIGS. 1A and 2A, pendrin activity was assayed from the kinetics of the halide-sensitive fluorescent protein EYFP-HIF in response to addition of a SCN^−-containing solution to drive pendrin-mediated Cl^−/SCN^−. Pendrin inhibition reduces the rate of EYFP-HIF quenching. PDSinh-A01 land PDSinh-C01 decreased pendrin-mediated Cl^−/SCN^− and Cl^−/I^− exchange in a concentration-dependent manner, as measured by YFP fluorescence quenching. […] Because the only previously-described pendrin inhibitor is the weakly active compound niflumic acid, no positive control was included in the screening plates.

**Q.** How did the inhibition at 25 µM turn out when CSc1cccc(NC(=O)N2CCc3c(c(COc4ccccc4)nn3C)C2)c1 was run?
**A.** 45%

**Q.** Cn1nc(COc2cccc(F)c2)c2c1CCN(C(=O)Nc1cccc(Cl)c1)C2 was tested. Which inhibition at 25 µM did it give?
**A.** 60%

**Q.** With Cn1nc(COc2ccc(F)cc2)c2c1CCN(C(=O)Nc1ccc(F)c(Cl)c1)C2 as the compound, how does the inhibition at 25 µM read?
**A.** 54%

**Q.** Cn1nc(COc2ccc(F)cc2)c2c1CCN(C(=O)Nc1ccc(Cl)cc1)C2 was tested. Which inhibition at 25 µM did it give?
**A.** 66%

**Q.** For Cc1ccc(NC(=O)N2CCc3c(c(COc4ccccc4)nn3C)C2)cc1, which inhibition at 25 µM is on record?
**A.** 61%

**Q.** With Cn1nc(COc2ccccc2)c2c1CCN(C(=O)Nc1ccc(Cl)cc1)C2 as the compound, how does the inhibition at 25 µM read?
**A.** 72%

**Q.** How did the inhibition at 25 µM turn out when Cc1ccc(NC(=O)N2CCc3c(c(COc4ccc(F)cc4)nn3C)C2)cc1C was run?
**A.** 58%

**Q.** With CCc1ccc(NC(=O)N2CCc3c(c(COCc4ccc(F)cc4Cl)nn3C)C2)cc1 as the compound, how does the inhibition at 25 µM read?
**A.** 49%

**Q.** Cc1ccc(NC(=O)N2CCc3c(c(COCc4ccc(Cl)cc4)nn3C)C2)cc1C was tested. Which inhibition at 25 µM did it give?
**A.** 49%

**Q.** CCc1ccc(NC(=O)N2CCc3c(c(COc4ccccc4)nn3C)C2)cc1 was tested. Which inhibition at 25 µM did it give?
**A.** 54%

**Q.** How did the inhibition at 25 µM turn out when Cc1ccc(NC(=O)N2CCc3c(c(COCc4cccc(F)c4)nn3C)C2)cc1Cl was run?
**A.** 49%

**Q.** With CSc1ccc(NC(=O)N2CCc3c(c(COc4ccccc4)nn3C)C2)cc1 as the compound, how does the inhibition at 25 µM read?
**A.** 77%

**Q.** Cc1ccc(NC(=O)N2CCc3c(c(COc4ccccc4)nn3C)C2)cc1C was tested. Which inhibition at 25 µM did it give?
**A.** 64%

**Q.** For Cc1ccc(NC(=O)N2CCc3c(c(COc4ccc(F)cc4)nn3C)C2)cc1Cl, which inhibition at 25 µM is on record?
**A.** 61%

**Q.** Which inhibition at 25 µM does the source give for Cc1cc(-c2cc(S(=O)(=O)NC3CCCc4ccccc43)c(C)s2)[nH]n1 (centres unmarked) here?
**A.** 53%

**Q.** For Cn1nc(COc2ccc(F)cc2)c2c1CCN(C(=O)Nc1cccc(C(F)(F)F)c1)C2, which inhibition at 25 µM is on record?
**A.** 57%

**Q.** How did the inhibition at 25 µM turn out when COc1ccc(NC(=O)N2CCc3c(c(COc4ccc(F)cc4)nn3C)C2)cc1F was run?
**A.** 53%

**Q.** For Cc1ccc(NC(=O)N2CCc3c(c(COCc4ccc(F)cc4Cl)nn3C)C2)cc1C, which inhibition at 25 µM is on record?
**A.** 48%

**Q.** Which inhibition at 25 µM does the source give for COc1ccc(NC(=O)N2CCc3c(c(COc4ccccc4)nn3C)C2)cc1F here?
**A.** 69%

Molecular target: T2, pendrin (Mus musculus, UniProt Q9R155)
T2 sequence (Q9R155 1-780): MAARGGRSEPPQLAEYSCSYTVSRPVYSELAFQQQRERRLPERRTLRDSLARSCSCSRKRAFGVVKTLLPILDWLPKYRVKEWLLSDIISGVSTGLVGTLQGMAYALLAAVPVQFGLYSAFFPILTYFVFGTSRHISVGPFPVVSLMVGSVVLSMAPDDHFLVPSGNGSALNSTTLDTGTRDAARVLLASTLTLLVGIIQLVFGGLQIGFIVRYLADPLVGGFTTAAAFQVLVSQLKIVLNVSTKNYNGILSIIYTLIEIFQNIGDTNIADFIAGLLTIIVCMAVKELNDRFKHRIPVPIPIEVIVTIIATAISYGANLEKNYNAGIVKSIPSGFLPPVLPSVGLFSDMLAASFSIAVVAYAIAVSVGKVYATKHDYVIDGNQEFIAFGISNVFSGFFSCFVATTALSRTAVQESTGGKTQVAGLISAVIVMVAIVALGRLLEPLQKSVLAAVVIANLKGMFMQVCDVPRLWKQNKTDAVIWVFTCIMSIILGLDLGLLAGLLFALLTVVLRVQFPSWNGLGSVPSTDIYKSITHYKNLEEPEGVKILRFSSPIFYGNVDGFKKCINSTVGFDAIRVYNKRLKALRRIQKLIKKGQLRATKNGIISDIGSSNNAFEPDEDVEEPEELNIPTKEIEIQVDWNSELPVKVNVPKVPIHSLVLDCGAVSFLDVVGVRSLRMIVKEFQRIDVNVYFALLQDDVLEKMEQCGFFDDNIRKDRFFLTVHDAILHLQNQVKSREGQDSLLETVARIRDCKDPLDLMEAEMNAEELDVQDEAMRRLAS
Assay: In vitro measurement of furosemide effect on pendrin activity
Details: not given

**Q.** With NS(=O)(=O)c1cc(C(=O)O)c(NCc2ccco2)cc1Cl [furosemide] as the compound, how does the “effect on pendrin activity” value read?
**A.** no effect
